Measurements: patent US12599676B2, “Cytotoxic imidazo[1,2-A]pyridine compounds and their use in therapy” (MyricX Pharma Limited, priority 2022, dated 2026)

Columns and labels:
[1] = tested on: BT474 breast cancer cells; assay: Orthotopic BT474 breast cancer xenograft model; assay type: in vivo, NOD/SCID mice; details: 2.0 mg/kg IV, 2 days dosing then 5 day holiday (Group 6), stopped at day 13
Experimental: NOD/SCID mice were implanted with estrogen pellets (17β-estradiol, 60 day release, 0.36 mg) subcutaneously in the right flank one day before the tumour inoculation. On day −8 each mouse was then injected in the right mammary fat pad with 1×10^7 viable BT474 breast cancer cells resuspended in 0.2 mL of Phosphate Buffered Saline mixed with matrigel (1:1). Mice were assigned to treatment groups when tumour volumes averaged 149.78 mm^3 on study day 0. […] The study was terminated on Study Day 35.
Each group was comprised of 10 mice. Tumour volumes in mice were measured three times per week and tumour volume was calculated using the formula 0.5 (L×W^2). […] Statistical analyses were carried out on tumour readings for Groups 1, 2, 3, 4 and 5 up to Study Day 23 (after this point >50% of the animals within one of the study groups were lost; Group 2) using two-way ANOVA, or a Mixed-Effects model was fitted when values were missing from groups (PRISM GraphPad Software Inc.).
Tumour Growth Inhibition, ΔTGI %=((mean(C)−mean (CO))−(mean(T)−mean(TO)))/(mean(C)−mean(CO))×100% where T is the mean tumour volume on the measurement day and TO is the mean tumour volume of the treated group on Study Day 0. C is the mean tumour volume of the control Group 1 mice on the measurement day and CO is the mean tumour volume on Study Day 0.

[2] = Caco-2 cell permeability assay; assay type: in vitro ADME; details: human, Caco-2, pH 7.4, basal to apical Papp, pH 7.4, 2.5 h
How it was run: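 Caco-2 monolayers grown 10 days were dosed at 2 μM (1% DMSO) on the donor side in HBSS/10 mM HEPES pH 7.4, for both AB and BA directions, then incubated 2.5 h at 37 °C without shaking. Donor and acceptor samples were quantified by LC-MS/MS to give Papp. Wells that failed a Lucifer Yellow integrity check (>1% passage) were excluded.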

Papp B→A at 2.5 h, 2 μM [2] [×10⁻⁶ cm/s]	SMILES	tumour size [1]
–	CNCc1cnc2ccc(-c3ccc(F)c(F)c3OCCc3c(C(O)C(C)(C)C)nn(C)c3C)cn12 (single isomer, unassigned) [Example 12, 1-(4-(2-(2,3-difluoro-6-(3-((methylamino)methyl)imidazo[1,2-a]pyridin-6-yl)phenoxy)ethyl)-1,5-dimethyl-1H-pyrazol-3-yl)-2,2-dimethylpropan-1-ol]	reduced tumour size
9.1	Cc1c(CCOc2cc(Cl)ccc2-c2ccc3ncc(CCN)n3c2)c(C(=O)N(C)C)nn1C [Comparator Compound 1, 4-(2-{2-[3-(2-aminoethyl)imidazo[1,2-a]pyridin-6-yl]-5-chlorophenoxy}ethyl)-N,N,1,5-tetramethyl-1H-pyrazole-3-carboxamide, reference compound]	–
